Data on 2 compounds can be found in paper PMC5360416 (Journal of pharmaceutical sciences, 2014).

Molecules are shown by their SMILES. Structures can show the parent of a compound that is named as a salt.

The conditions of data set [1]: stated without reference, cited from earlier work.
In data set [2] the test system is MCT induced PAH rats. Put plainly: Acute hemodynamic efficacy in MCT induced PAH rats. To be noted: 3 mg/kg. The class given is in vivo, rat.
Data set [3] is described as follows: Pharmacokinetics in adult male SD rats. The class given is in vivo, rat. To be noted: 6 mg/kg; for AUC(0-inf) / Cmax: male, Sprague-Dawley, rat, plasma.
The subject of data set [4] is rat PASM cells.
A short description of data set [5]: Short-term lung toxicity, bronchoalveolar lavage. The class given is in vivo, rat. To be noted: 12 hrs.
Setting [6] is: 0.1% SDS, compared with CAR-micelles and plain drug.

With `O=S(=O)(c1cccc2cnccc12)N1CCCNCC1` [Fasudil, Fasudil hydrochloride], the solubility in methanol entry in data set [1] (methanol) is “moderately soluble”. The solubility in water in data set [1] (water) was ~200 mg/mL. Also, the “reduction in MPAP, IT versus IV” value in data set [2] (plain fasudil IT) is recorded as “more pronounced reduction in MPAP than IV fasudil”. The “reduction in MSAP” value in data set [2] (plain fasudil IV and IT) is “significant reduction”. The results for the “time after which no plasma concentration was shown” value in data set [3] (IT) and in data set [3] (IV) were 6 h and 2 h, respectively. In addition, the values for the AUC(0-inf) in data set [3] (inhaled or intranasal) and in data set [3] (iv) were 21700 ± 4080 ng·h/mL and 27600 ± 3910 ng·h/mL, respectively. Moreover, the peak concentration (Cmax) stood at 1450 ± 580 ng/mL in data set [3] (inhaled or intranasal) and 3780 ± 230 ng/mL in data set [3] (iv).

With `CCCCCCCCCCCCOS(=O)(=O)[O-].[Na+]` [SDS, sodium dodecyl sulfate], the cell viability in data set [4] is ~16%. Besides, in data set [5] (setting [6]), the “ALP level in BAL fluid” value is on record as “elevated levels” and the “LDH level in BAL fluid” value is listed as “elevated levels”. In addition, the “wet lung weight compared to saline treated rats” value in data set [5] (intratracheal, CAR-micelles equivalent to 6 mg/kg fasudil, SDS 0.1%) was “two-fold”.

For orientation: AUC(0-inf) means the area under the concentration-time curve extrapolated to infinity. Lower therefore signals less exposure. For orientation: Cmax means the highest concentration seen after dosing. What is called cell viability is the share of living cells, or the viability signal relative to a control. A low value points to a greater loss of cells.
